# Measured values reported in ChEMBL document CHEMBL5674860, “Optimized Dual-Glo Assay to identify co-culture-induced drug vulnerabilities in 3D CRC models” (2024).
# What was measured:
# Type in all cases: functional, Homo sapiens
# Parameters in all cases: dose or concentration left out as unconfirmed
# Colon cancer organoid [1] = experiment: Optimized Dual-Glo assay to identify co-culture induced drug vulnerabilities using donated chemical probes and chemogenomics kinase set in O06 CRC organoid and F06 CAF mono and co-culture. […] Cell viability is reported both mono and co-culture models.
# Colon cancer organoid [2] = experiment: Optimized Dual-Glo assay to identify co-culture induced drug vulnerabilities using donated chemical probes and chemogenomics kinase set in O14 CRC organoid and F14 CAF mono and co-culture. […] Cell viability is reported both mono and co-culture models.
# Colon cancer organoid [3] = experiment: Optimized Dual-Glo assay to identify co-culture induced drug vulnerabilities using donated chemical probes and chemogenomics kinase set in O20 CRC organoid and F20 CAF mono and co-culture. […] Cell viability is reported both mono and co-culture models.
# [4] = Culture type Co-Culture, Transduced with Lucferase2-P2A-EGFP lentivirus
# [5] = Culture type Co-Culture, Transduced with Renilla-dsRed lentivirus
# [6] = Culture type Mono-Culture, Transduced with Lucferase2-P2A-EGFP lentivirus
# [7] = Culture type Mono-Culture, Transduced with Renilla-dsRed lentivirus
SMILES,Cell Viability (Colon cancer organoid [1]; [4]) [%],Cell Viability (Colon cancer organoid [1]; [5]) [%],Cell Viability (Colon cancer organoid [1]; [6]) [%],Cell Viability (Colon cancer organoid [1]; [7]) [%],Cell Viability (Colon cancer organoid [2]; [4]) [%],Cell Viability (Colon cancer organoid [2]; [5]) [%],Cell Viability (Colon cancer organoid [2]; [6]) [%],Cell Viability (Colon cancer organoid [2]; [7]) [%],Cell Viability (Colon cancer organoid [3]; [4]) [%],Cell Viability (Colon cancer organoid [3]; [5]) [%],Cell Viability (Colon cancer organoid [3]; [6]) [%],Cell Viability (Colon cancer organoid [3]; [7]) [%]
N#CC1(c2ccccn2)CCN(Cc2cc(C(=O)O)c(=O)n3ccccc23)CC1 [MSD-M1PAM],12.088,188.309,35.5128,99.638,126.16,122.221,72.0486,98.779,53.1969,117.537,81.9362,89.7444
CC(=O)Nc1c(C(C)=O)c(=O)n(C)c2nc(-c3ccc(Cl)cc3Cl)c(-c3ccc(Cl)cc3)cc12 [NAPHTHYRIDINONE],144.905,170.157,100.862,101.001,70.6421,119.606,87.1663,99.5027,105.882,98.6055,84.0394,82.777
CO[C@@H](C)c1c(Nc2ccc([C@@H](N(C)C(=O)C3CCS(=O)(=O)CC3)C(F)(F)F)cc2)cnc2cc(Cl)nn12 [NVS-MALT1-C],50.6957,73.6522,67.3669,85.1011,62.8563,80.6398,85.3196,104.147,83.6241,108.215,61.6775,90.6676
CO[C@@H](C)c1c(Nc2ccc([C@H](N(C)C(=O)C3CCS(=O)(=O)CC3)C(F)(F)F)cc2)cnc2cc(Cl)nn12 [NVS-MALT1],54.3511,83.5282,80.0936,98.6896,62.6088,105.477,102.315,101.932,87.8486,98.697,70.7423,82.2292
COc1ncc(-c2ccc3nccc(-c4ccnnc4)c3c2)cc1NS(=O)(=O)c1ccc(F)cc1F [OMIPALISIB],2.362,34.7423,3.227,27.5983,1.562,61.2077,2.831,44.5325,2.277,94.8256,1.422,74.6652
CN1CCN(c2ccc(OC(F)(F)F)c(Nc3ncc4c(n3)-c3c(c(C(N)=O)nn3CCO)CC4)c2)CC1 [ONVANSERTIB],2.834,160.245,4.275,93.5315,3.512,162.986,6.811,81.4434,2,184.086,2.415,100.341
Nc1nc(NCc2ccccc2)nc(-c2ccccc2CO)n1 [Ogerin],100.001,107.856,82.0596,96.3715,77.8704,129.106,105.546,105.714,80.9307,98.0569,82.507,92.5232
